Assay results: the OPERA property sets (Mansouri et al. 2018)

Row | logP | SMILES
1 | 3.12 | CCN(CC)C(=O)CC1CCCCC1
2 | 3 | Cc1cccc(C(=O)N(C(C)C)C(C)C)c1
3 | 1.14 | CCNC(=O)c1ccc(OC)cc1
4 | 2.6 | Cc1cccc(C(=O)N2CCCCC2)c1
5 | 3 | CC(C)N(C(=O)c1ccccc1Cl)C(C)C
6 | 2.8 | Cc1ccc(C(=O)N2CCCCC2)cc1
7 | 1 | CCNC(=O)Cc1ccccc1
8 | 2.4 | CCNC(=O)c1ccccc1OCC
9 | 3 | CCOc1ccccc1C(=O)N(C(C)C)C(C)C
10 | 2.44 | O=C(Cc1ccccc1)N1CCCCC1
11 | 1.38 | CCNC(=O)c1ccc(C)cc1
12 | 2.1 | CCN(CC)C(=O)c1ccccc1Cl
13 | 2.5 | CC(C)N(C(=O)c1ccccc1)C(C)C
14 | 2.19 | CN(C)C(=O)CC1CCCCC1
15 | 1.48 | CN(C)C(=O)Cc1ccccc1
16 | 1.72 | Cc1ccc(C(=O)N(C)C)cc1

Row | logP | SMILES
17 | 2.28 | CCNC(=O)CC1CCCCC1
18 | 1.32 | CCNC(=O)c1cccc(C)c1
19 | 2.2 | O=C(c1ccccc1)N1CCCCC1
20 | 3.2 | O=C(CC1CCCCC1)N1CCCCC1
21 | 2.5 | CCOc1ccccc1C(=O)N(CC)CC
22 | 3.1 | CC(C)N(C(=O)Cc1ccccc1)C(C)C
23 | 2.8 | O=C(c1ccccc1Cl)N1CCCCC1
24 | 1.54 | CN(C)C(=O)c1ccccc1Cl
25 | 2.8 | COc1ccc(C(=O)N(C(C)C)C(C)C)cc1
26 | 2.6 | CCOc1ccccc1C(=O)N1CCCCC1
27 | 2.4 | CCN(CC)C(=O)Cc1ccccc1
28 | 2.38 | CCN(CC)C(=O)c1ccc(C)cc1
29 | 2.4 | COc1ccc(C(=O)N2CCCCC2)cc1
30 | 1.6 | Cc1cccc(C(=O)N(C)C)c1
31 | 2.5 | Cc1ccc(C(=O)N(C(C)C)C(C)C)cc1
